# From US11571413B2, “Nicotinamide riboside treatments of domesticated meat animals” (Kansas State University Research Foundation, priority 2017, dated 2023)
# Several values for one entry are separate records, joined by “and”; a condition that tells them apart may be missing. Identical values can stand only once. Marks after values point to notes of the source that are not given here.
# Key:
# finished market barrows = assay: Semitendinosus muscle NAD+ content by HPLC (Example V); assay type: in vivo, pig; conditions: 30 mg/kg BW oral daily, 10 days
# Experimental: Fourteen days prior to harvest, 20 finished market barrows (initial body weight 268 pounds) were randomly assigned to 1 of 2 treatments: 0 or 30 mg/kg body weight of nicotinamide riboside, both orally administered daily in 20 ml of Karo® Syrup. Ten days prior to harvest, pigs were restrained via a snare and treatments were administered. On day 7, barrows were subjected to a performance test where they were walked around a track at 0.88 m/s until subjective fatigue was achieved. Three days following the performance test, barrows were harvested and a portion of the semitendinosus muscle was collected within 45 minutes. These samples were analyzed for NAD+ content via HPLC methodology.
# [1] = test system: Fertilized Cobb 500 broiler eggs; assay: Pectoralis major muscle fiber morphometrics and satellite cell content (second Example VI); assay type: in vivo, chicken
# Experimental: The methods of Gonzalez and Jackson (2020) were followed for immunohistochemistry analysis. On 2 separate slides, 6 cryosections (10 μm thick) were collected on positively charged slides (Diamond White Glass; Globe Scientific Inc., Paramus, N.J.). Cryosections were incubated in 5% horse serum and 0.2% TritonX-100 in phosphate buffered saline (PBS) for 30 min to block all nonspecific binding sites. Cryosections were incubated for 16 h at 4° C. with a primary antibody solution comprising blocking solution and 1:500 rabbit α-dystrophin (Thermo Scientific, Waltham, Mass.) and 1:2 […] α-Pax7 antibody (Developmental Studies Hybridoma Bank, Iowa City, Iowa). Cryosections were washed 3 times for 5 min with PBS and incubated for 30 min with 1:1,000 Alexa-Flour 594 goat-anti-rabbit H&L (Life Technologies, Carlsbad, Calif.), 1:1000 Alexa-Flour 488 chicken-anti-mouse IgG1 (Life Technologies), and 1:1,000 Hoescht Dye 33342 (Life technologies) secondary antibodies in blocking solution. After washing in PBS 3 times for 5 min, 5 μL of 9:1 glycerol in PBS was placed on each cryosection and slides were coverslipped for imaging. All cryosections were imaged at 200× magnification using a Nikon Eclipse TI-U inverted microscope (Nikon Instruments Inc., Melville, N.Y.). Immunohistochemistry photomicrographs were collected with a DS-QiMC digital camera (Nikon Instruments Inc.) and SDH cryosections were collected with a Nikon DS-Fil color digital camera (Nikon Instruments Inc.) White light intensity was kept constant for SDH photomicrographs. All photomicrograph collection and image analyses were conducted using NIS Elements Basic Software (Nikon Instruments Inc.). Cross-sectional area (CSA) of a minimum of 1,000 muscle fibers per chick was determined as the area within the dystrophin border. The number of satellite cell was determined as nuclei co-staining for Pax 7 and Hoechst dye located at the periphery of muscle fiber. A minimum of 50 muscle fiber bundles per chick were analyzed for SDH mean intensity using the same software. The scale for mean intensity ranged from 0 (black or the most intense staining) to 250 (white or the least intense staining).
# [2] = test system: Fertilized broiler eggs (Cobb 500); assay: In ovo feeding of NR into yolk or albumen: hatched chick body and pectoralis major morphometrics (Example VI); assay type: in vivo, chicken; conditions: hatched chicks
# Experimental: Fertilized broiler eggs (N=156; Cobb 500; Cobb-Vantress, Siloam Springs, Ark.) with an average weight of 70.3 g were transported in coolers to the Kansas State University Muscle Biology Laboratory (Manhattan, Kans.). Upon arrival, egg weights were recorded, eggs were ordered by weight, and within each 4 egg strata, eggs were randomly assigned to treatments within a 2×2 factorial arrangement. Factor 1 was NR treatment with eggs receiving 0 or 250 mM NR (ChromaDex, Los Angeles, Calif.). Factor 2 was injection location, with treatments injected into either the yolk or albumen. After treatment assignment, eggs were positioned with equal treatment representation onto trays and placed in an incubator (Sportsman 1502; GQF Manufacturing Company Inc., Savannah, Ga.) set to operate at a temperature of 37° C. and a relative humidity of 40±2% for the first 18 d of incubation. The incubator rotated hourly to reposition eggs, and trays were rotated daily throughout the incubator to account for variation in temperature and humidity. Tray weights were recorded each day to determine egg weight loss percentage with a target weight loss of 0.67% per day.
# At d 10 of incubation, NR with the equivalent weight of 250 mM was added to 0.9% sterile saline and covered with foil to prevent exposure to light. Sets of 20 eggs representing equal treatment numbers were removed from the incubator, candled to determine location of the yolk and albumen, and the injection site was cleaned with 70% ethanol. Eggs were turned at a 90° angle and a 2.54-cm, 20-guage hypodermic needle was used to create an opening in the shell at the proper injection site. The needle was inserted approximately 1 cm into injection site and 100 μl of the 250 mM NR solution or 0.9% saline solution was injected into the egg. A 1-cm^2 portion of medical tape (Nexcare; 3M, Maplewood, Minn.) was positioned over the injection location and eggs were returned to the incubator.
# On d 18 of incubation, the relative humidity of the incubator was increased to 60±2% and eggs were placed into hatching boxes at the bottom of the incubator. As chicks began to hatch, they were removed from the incubator, marked for treatment, and relocated to a box positioned underneath a heat lamp. Approximately 12 to 24 h after hatch, chicks were euthanized by prolonged exposure to CO2 gas and decapitation. Chick weights were recorded, and digital calipers (Traceable Digital Calipers; Fisher Scientific, Pittsburg, Pa.) were utilized to measure crown to rump length, head width, head length. Head and chest circumference were also collected by wrapping a string around the designated area and determining the length against a ruler.
# Chick carcasses were sprayed with 70% ethanol and the skin and feathers were pulled back to reveal the pectoralis major (PM) muscles. Prior to PM muscles removal, chest width and length were measured using digital calipers. The left and right PM muscles were removed, careful to not remove the pectoralis minor muscles. The left PM was weighed and dimensions were collected using digital calipers, including length, width, and depth. This muscle was positioned onto a tongue depressor and placed into a −80° C. freezer, where it was stored until it was used for cryosectioning. The heart and liver were also removed, weighed, and discarded.
# [3] = 250, 500 mM or 1 M NR, hatched chicks
# [4] = 250 and 500 mM NR, hatched chicks
# [5] = 250 mM NR, 100 μl into albumen d 10
# [6] = 250 mM NR, 100 μl into yolk d 10
structure (smiles),measurement,setting,value
"NC(=O)c1ccc[n+]([C@@H]2O[C@H](CO)[C@@H](O)[C@H]2O)c1 [Nicotinamide riboside, nicotinamide riboside]","Increase of NAD+ in the semitendinosus muscle (tendency, P=0.09)",finished market barrows,62%
same,Increase of satellite cell density compared to control,"[1]; 250 mM NR, at hatching",73%
same,Satellite cell density vs control chicks,"[1]; 250 mM NR, hatched chicks",greater
same,Average increase of satellite cell density compared to control,"[1]; 500 mM and 1 M NR, at hatching",116%
same,Satellite cell density vs 0 and 250 mM treatments,"[1]; 500 mM or 1 M NR, hatched chicks",greater satellite cell density
same,Increase of muscle fiber density compared to control chicks,"[1]; 1 M NR, hatched chicks",75%
same,Muscle fiber density vs all other treatments,"[1]; 1 M NR, hatched chicks",greater muscle fiber density
same,Muscle fiber CSA,[1]; [3],no treatment effect
same,Number of satellite cells per muscle fiber,[1]; [3],no treatment effect
same,Increase of muscle fiber density compared to control chicks (average),[1]; [4],34%
same,Muscle fiber density vs control chicks,[1]; [4],greater muscle fiber density
same,Increase of PM weight,[2]; 250 mM NR into the yolk sac,38%
same,Increase of PM length,"[2]; 250 mM NR into the yolk sac, listed as NR",22% and 21%
same,Body weight,[2]; [5],43.19 g
same,Chest length,[2]; [5],21.98 mm
same,Chest width,[2]; [5],16.57 mm
same,Crown-rump length,[2]; [5],96.14 mm
same,Head circumference,[2]; [5],32.14 mm
same,Head length,[2]; [5],21.29 mm
same,Head width,[2]; [5],15.56 mm
same,Heart weight,[2]; [5],0.35 g
same,Liver weight,[2]; [5],1.05 g
same,Pectoralis major depth,[2]; [5],2.43 mm
same,Pectoralis major length,[2]; [5],18.68^b mm
same,Pectoralis major weight,[2]; [5],0.14^a g
same,Pectoralis major width,[2]; [5],4.81 mm
same,Body weight,[2]; [6],44.02 g
same,Chest length,[2]; [6],22.68 mm
same,Chest width,[2]; [6],17.69 mm
same,Crown-rump length,[2]; [6],89.36 mm
same,Head circumference,[2]; [6],31.49 mm
same,Head length,[2]; [6],21.73 mm
same,Head width,[2]; [6],15.45 mm
same,Heart weight,[2]; [6],0.36 g
same,Liver weight,[2]; [6],1.11 g
same,Pectoralis major depth,[2]; [6],2.65 mm
same,Pectoralis major length,[2]; [6],20.74^c mm
same,Pectoralis major weight,[2]; [6],0.18^b g
same,Pectoralis major width,[2]; [6],5.21 mm
same,Increase of PM width,"[2]; 250 mM NR, regardless of injection location",9%
same,Increase of PM depth,"[2]; 250 mM NR, regardless of injection location, listed as NR",11% and 10%
